What was measured:
Type in all cases: cell-based
Streptococcus pyogenes = assay: Zone inhibition assay (filter paper disc area diffusion); conditions: distance from edge of disc to bacterial growth; blood agar; discs saturated with 100 mg/ml solution (antibiotic control discs 5-30 μg); 24 hours at 37° C.
Experimental: (§1) Two methods were used to examine whether an inhibitory effect from the zinc containing compounds was observable and if there was an inhibitory effect, whether the effect was bactericidal (bacteria-killing) or bacteriostatic (bacterial-inhibiting) in nature. In the first method, two Gram-positive bacteria strains (Staphlococcus aureus, Streptococcus pyogenes), two Gram-negative bacteria strains (Salmonella typhimerium, Eschrichia coli), and one common yeast strain (Candida albicans) were grown nutrient agar plates, except in the case of S. pyogenes which was grown on blood agar plates.
(§2) Zone inhibition assays were conducted with eighteen different samples in accordance with the methodology described by Maruzella, J. C. and Henry, P. A., J. Am. Pharm. Assoc. 47:894 (1958) for filter paper disc area diffusion. Sample solutions were prepared to approximate 100 mg/mL concentrations.
(§3) Organisms were grown for 24 hours at 37° C. on blood agar plates with the exception of Candida albicans which was grown in a standard methods agar (SMA) medium. Solutions of each sample were prepared using sterile DD water at a concentration of 100 mg/ml. Paper discs were saturated with solution from each sample and dried aseptically. […] Following drying of solution derived discs, all discs were placed on agar plates with each of the five different microorganisms.

Candida albicans [1] = assay: as above; conditions: distance from edge of disc to growth; discs saturated with 100 mg/ml solution (antibiotic control discs 5-30 μg); 24 hours at 37° C.
Experimental: as §1, §2, §3

Staphlococcus aureus [2] = assay: as above; conditions: distance from edge of disc to bacterial growth; discs saturated with 100 mg/ml solution (antibiotic control discs 5-30 μg); 24 hours at 37° C.
Experimental: as §1, §2, §3

Eschrichia coli [3] = assay: as above; conditions: distance from edge of disc to bacterial growth; discs saturated with 100 mg/ml solution (antibiotic control discs 5-30 μg); 24 hours at 37° C.
Experimental: as §1, §2, §3

Salmonella typhimerium = assay: as above; conditions: distance from edge of disc to bacterial growth; discs saturated with 100 mg/ml solution (antibiotic control discs 5-30 μg); 24 hours at 37° C.
Experimental: as §1, §2, §3

Candida albicans [4] = assay: Turbidity assay (TSB tubes, plated out); set-up: key: no-growth (NG) which corresponds with excellent inhibitory activity; partial growth (PG) which corresponds with good inhibitory activity; complete growth (CG) which corresponds with little or no inhibitory activity; conditions: TSB tube with 1.0 mL sample solution (100 mg/mL) and 100 μL 24-hour culture; after 24 hours plated, incubated 24 hours
Experimental: (§4) In the second method, turbidity assays were conducted. Tryptic soy broth (TSB) tubes were inoculated with 1.0 mL of sample solutions (100 mg/mL) and 50 μL of 24-hour cultures of each microbe. In the case of C. albicans, 100 μL of 24-hour culture was used. After 24 hours, an aliquot from each tube was plated out onto nutrient media and incubated for 24 hours. Following incubation, colonies on each plate were observed and characterized as one of three categories: no-growth (NG) which corresponds with excellent inhibitory activity, partial growth (PG) which corresponds with good inhibitory activity, complete growth (CG) which corresponds with little or no inhibitory activity.
(§5) S. pyongenes, could not be grown in the solution, so the turbidity assay was not conducted for that microorganism. When the data from both zone inhibition (Table 2) and turbidity (Table 3) assays are compared, an indication of the inhibition activity may be evident.

Staphlococcus aureus [5] = assay: Turbidity assay (TSB tubes, plated out); set-up: key: no-growth (NG) which corresponds with excellent inhibitory activity; partial growth (PG) which corresponds with good inhibitory activity; complete growth (CG) which corresponds with little or no inhibitory activity; conditions: TSB tube with 1.0 mL sample solution (100 mg/mL) and 50 μL 24-hour culture; after 24 hours plated, incubated 24 hours
Experimental: as §4, §5

Eschrichia coli [6] = assay: Turbidity assay (TSB tubes, plated out); set-up: key: no-growth (NG) which corresponds with excellent inhibitory activity; partial growth (PG) which corresponds with good inhibitory activity; complete growth (CG) which corresponds with little or no inhibitory activity; conditions: TSB tube with 1.0 mL sample solution (100 mg/mL) and 50 μL 24-hour culture; after 24 hours plated, incubated 24 hours
Experimental: as §4, §5

| Compound | inhibitory zone, Streptococcus pyogenes (Streptococcus pyogenes) | inhibitory zone, Candida albicans (Candida albicans [1]) | inhibitory zone, Staphlococcus aureus (Staphlococcus aureus [2]) | inhibitory zone, Eschrichia coli (Eschrichia coli [3]) | inhibitory zone, Salmonella typhimerium (Salmonella typhimerium) | colony growth category, Candida albicans (Candida albicans [4]) | colony growth category, Staphlococcus aureus (Staphlococcus aureus [5]) | colony growth category, Eschrichia coli (Eschrichia coli [6]) |
| --- | --- | --- | --- | --- | --- | --- | --- | --- |
| NCC(=O)[O-].[Na+] [Sample 16, Sodium Glycinate] | no activity | no activity | no activity | no activity | no activity |  |  |  |
| [Cl-].[Cl-].[Zn+2] [Sample 1, Zinc Chloride] | 2.5 millimeters | 4.5 millimeters | 6 millimeters | 4 millimeters | 3.5 millimeters | PG | PG | PG |
| O=C(O)c1cn(C2CC2)c2cc(N3CCNCC3)c(F)cc2c1=O [Sample 9, Ciproflaxicin] | 3 millimeters | no activity | 8.5 millimeters | 5 millimeters | 10 millimeters |  |  |  |
| O=C([O-])CC(O)(CC(=O)[O-])C(=O)[O-].[Na+].[Na+].[Na+] [Sample 18, Sodium Citrate] | no activity | no activity | no activity | no activity |  |  |  |  |
| O=S(=O)([O-])[O-].[Zn+2] [Sample 4, Zinc Sulfate] | 2 millimeters | 2 millimeters | 3.7 millimeters | 3.5 millimeters | 3 millimeters | CG | CG | CG |
| CN[C@H](CC(C)C)C(=O)N[C@H]1C(=O)N[C@@H](CC(N)=O)C(=O)N[C@H]2C(=O)N[C@H]3C(=O)N[C@H](C(=O)N[C@H](C(=O)O)c4cc(O)cc(O)c4-c4cc3ccc4O)[C@H](O)c3ccc(c(Cl)c3)Oc3cc2cc(c3O[C@@H]2O[C@H](CO)[C@@H](O)[C@H](O)[C@H]2O[C@H]2C[C@](C)(N)[C@H](O)[C@H](C)O2)Oc2ccc(cc2Cl)[C@H]1O [Sample 13, Vancomycin] | 5 millimeters | no activity | 5 millimeters | no activity | no activity |  |  |  |
| [Cl-].[Na+] [Sample 14, Sodium Chloride] | no activity | no activity | no activity | no activity | no activity |  |  |  |
| Cc1cc(NS(=O)(=O)c2ccc(N)cc2)no1 [Sample 12, Sulfamethoxazole] | 7.5 millimeters | no activity | 3.5 millimeters | 3 millimeters | 4 millimeters | CG | CG | CG |
| NC[C@@H]1O[C@H](O[C@H]2[C@@H](O)[C@H](O[C@@H]3[C@@H](O)[C@H](N)C[C@H](N)[C@H]3O[C@H]3O[C@H](CN)[C@@H](O)[C@H](O)[C@H]3N)O[C@@H]2CO)[C@H](N)[C@@H](O)[C@@H]1O [Sample 8, Neomycin] | 3 millimeters | no activity | 6 millimeters | 3 millimeters | 6 millimeters |  |  |  |
| O=C([O-])CCCCC1CCSS1.O=C([O-])CCCCC1CCSS1.[Zn+2] (stereo not drawn) [Sample 6, Zinc Lipoate] | 1 millimeters | no activity | 1.5 millimeters | .5 millimeters | 2 millimeters |  |  |  |
| CN(C)[C@@H]1C(O)=C(C(N)=O)C(=O)[C@@]2(O)C(O)=C3C(=O)c4c(O)cccc4[C@@](C)(O)[C@H]3C[C@@H]12 [Sample 11, Tetracycline] | no activity | no activity | 7.5 millimeters | 5.5 millimeters | 7 millimeters |  |  |  |
| O=S(=O)([O-])[O-].[Na+].[Na+] [Sample 17, Sodium Sulfate] | no activity | no activity | no activity | no activity | no activity |  |  |  |
| CC1(C)S[C@@H]2[C@H](NC(=O)[C@H](N)c3ccc(O)cc3)C(=O)N2[C@H]1C(=O)O [Sample 10, Amoxicillin] |  | no activity | 7.5 millimeters | 3.5 millimeters | 8 millimeters |  |  |  |
| CC(=O)[O-].CC(=O)[O-].[Zn+2] [Sample 3, Zinc Acetate] | 3.5 millimeters | 2 millimeters | 2 millimeters | 3 millimeters | 3 millimeters |  |  |  |
| O=C([O-])CC(O)(CC(=O)[O-])C(=O)[O-].O=C([O-])CC(O)(CC(=O)[O-])C(=O)[O-].[Zn+2].[Zn+2].[Zn+2] [Sample 2, Zinc Citrate] | 3.5 millimeters | no activity | 1 millimeters | 1.5 millimeters |  |  |  |  |
| CC(=O)[O-].[Na+] [Sample 15, Sodium Acetate] | no activity | no activity | no activity | no activity | no activity | CG | NG | NG |
| Zinc Gluconate [Sample 7] | 5 millimeters | no activity | 3 millimeters | 2 millimeters | 2.75 millimeters |  |  |  |
| NCC(=O)[O-].NCC(=O)[O-].[Zn+2] [Sample 5, Zinc Bis-Glycinate] | 4 millimeters | 0.5 millimeters | 3.5 millimeters | 3.5 millimeters | 3.5 millimeters | NG | PG (1) | NG |
